According to patent US20260234136A1, “ISOXAZOLIDINES AS RIPK1 INHIBITORS AND USE THEREOF” (GENZYME CORPORATION, priority 2023, published 2026):
pIC50: −log10 of the molar value.

Test system: U937 cells
Assay: Cellular assay in U937 cells to measure the activity of RIPK1-inhibitors on cell death (necroptosis)
Format: cell-based
Conditions: Homo sapiens, U-937, 50 μM zVAD.fmk and 100 ng/ml recombinant human TNFα, overnight (18 to 24 hrs), MTS readout
Description: Absorbance of formazan was read at 490 nm. The inhibitory activity of the test compound was quantified in a concentration response curve (CRC) experiment.
Compounds were obtained as 10 mM stock solutions and were diluted 1 to 10 volumes with DMSO to yield a 1 mM solution. From this solution 2 μl were diluted with 998 μl growth medium.
U937 cells were cultured in RPMI1640 Glutamax and 10% heat inactivated FBS. […] 50 μl of compound dilutions, as described in Cellular assay in U937 cells, were added and the cell suspension incubated overnight (18 to 24 hrs) at 37° C., 5% CO2 in a humidified atmosphere (95% rH).
CellTiter 96 Aqueous reagent was mixed (100 μl PMS (phenazine methosulfate) solution/2 ml MTS (3-(4,5-[…])-5-(3-carboxymethoxyphenyl)-2-(4-sulfophenyl)-2H-tetrazolium, inner salt) solution) and 20 μl were added per well. After 4 hrs incubation at 37° C. (5% CO2 95% rH) optical density was measured at 490 nm on a microplate reader (Tecan Infinite M1000).
The % inhibition is expressed as percentage of the maximal inhibition value obtained in the absence of TNFα/zVAD.fmc.

SMILES | pIC50
Cc1cnn(-c2cc(N3CCC(C(=O)N4OCC[C@H]4c4ccc(C)nc4)CC3)ncn2)c1 [Example 17, [1-[6-(4-methylpyrazol-1-yl)pyrimidin-4-yl]-4-piperidyl]-[(3S)-3-(6-methyl-3-pyridyl)isoxazolidin-2-yl]methanone] | 7.41
Cc1ccc([C@@H]2CCON2C(=O)C2CCN(c3ncc(F)c(-n4cccn4)n3)CC2)cn1 [Example 10, [1-(5-fluoro-4-pyrazol-1-yl-pyrimidin-2-yl)-4-piperidyl]-[(3S)-3-(6-methyl-3-pyridyl)isoxazolidin-2-yl]methanone] | 8.40
Cc1nc([C@@H]2CCON2C(=O)[C@@H]2CCN(c3cc(-c4ncnn4C)ncn3)CC23CC3)cs1 [Example 41, [(3S)-3-(2-methyl-1,3-thiazol-4-yl)-1,2-oxazolidin-2-yl]-[(8R)-5-[6-(2-methyl-1,2,4-triazol-3-yl)pyrimidin-4-yl]-5-azaspiro[2.5]octan-8-yl]methanone] | 7.36
O=C(C1CCN(c2ncc(F)c(-n3cccn3)n2)CC1)N1OCC[C@H]1c1cnccn1 [Example 32, (S)-(1-(5-fluoro-4-(1H-pyrazol-1-yl)pyrimidin-2-yl)piperidin-4-yl)(3-(pyrazin-2-yl)isoxazolidin-2-yl)methanone] | 9.00
O=C(C1CCN(c2ncc(F)c(-c3cncs3)n2)CC1)N1OCC[C@H]1c1cnccn1 [Example 27, (S)-(1-(5-fluoro-4-(thiazol-5-yl)pyrimidin-2-yl)piperidin-4-yl)(3-(pyrazin-2-yl)isoxazolidin-2-yl)methanone] | 9.00
Cc1ncc([C@@H]2CCON2C(=O)C2CCN(c3nccc(N4CCC5(CC5)C4=O)n3)CC2)cc1F [Example 61, 5-[2-[4-[(3S)-3-(5-fluoro-6-methylpyridin-3-yl)-1,2-oxazolidine-2-carbonyl]piperidin-1-yl]pyrimidin-4-yl]-5-azaspiro[2.4]heptan-4-one] | 7.49
Cc1ncc([C@@H]2CCON2C(=O)C2CCN(c3nccc(C4COC4)n3)CC2)cc1F [Example 101, [(3S)-3-(5-fluoro-6-methylpyridin-3-yl)-1,2-oxazolidin-2-yl]-[1-[4-(oxetan-3-yl)pyrimidin-2-yl]piperidin-4-yl]methanone] | 5.59
Cn1nccc1-c1cc(N2CCC(C(=O)N3OCC[C@H]3c3cnccn3)CC2)ncn1 [Example 28, (S)-(1-(6-(1-methyl-1H-pyrazol-5-yl)pyrimidin-4-yl)piperidin-4-yl)(3-(pyrazin-2-yl)isoxazolidin-2-yl)methanone] | 7.37
Cc1nccn1-c1ncnc(N2CCC(C(=O)N3OCC[C@H]3c3cnccn3)CC2)n1 [Example 26, (S)-(1-(4-(2-methyl-1H-imidazol-1-yl)-1,3,5-triazin-2-yl)piperidin-4-yl)(3-(pyrazin-2-yl)isoxazolidin-2-yl)methanone] | 8.30
Cc1ccc([C@@H]2CCON2C(=O)C2CCN(c3nccc(N4CCC5(CC5)C4=O)n3)CC2)cn1 [Example 70, 5-[2-[4-[(3S)-3-(6-methylpyridin-3-yl)-1,2-oxazolidine-2-carbonyl]piperidin-1-yl]pyrimidin-4-yl]-5-azaspiro[2.4]heptan-4-one] | 6.97
Cc1ncc([C@@H]2CCON2C(=O)C2CCN(c3cc(-c4ncnn4C)ncn3)CC2)cc1F [Example 49, [(3S)-3-(5-fluoro-6-methylpyridin-3-yl)-1,2-oxazolidin-2-yl]-[1-[6-(2-methyl-1,2,4-triazol-3-yl)pyrimidin-4-yl]piperidin-4-yl]methanone] | 7.82
Cc1cnc([C@@H]2CCON2C(=O)C2CCN(c3nccc(N4CCCC4=O)n3)CC2)cn1 [Example 55, 1-[2-[4-[(3S)-3-(5-methylpyrazin-2-yl)-1,2-oxazolidine-2-carbonyl]piperidin-1-yl]pyrimidin-4-yl]pyrrolidin-2-one] | 7.11
Cc1ccc([C@@H]2CCON2C(=O)C2CCN(c3ccnc(N4CCCC5(CC5)C4=O)n3)CC2)cn1 [Example 90, 5-[4-[4-[(3S)-3-(6-methylpyridin-3-yl)-1,2-oxazolidine-2-carbonyl]piperidin-1-yl]pyrimidin-2-yl]-5-azaspiro[2.5]octan-4-one] | 5.35
Cc1nc([C@@H]2CCON2C(=O)C2CCN(c3nccc(N4CCC5(CC5)C4=O)n3)CC2)co1 [Example 54, 5-[2-[4-[(3S)-3-(2-methyl-1,3-oxazol-4-yl)-1,2-oxazolidine-2-carbonyl]piperidin-1-yl]pyrimidin-4-yl]-5-azaspiro[2.4]heptan-4-one] | 7.29
Cc1nc([C@@H]2CCON2C(=O)C2CCN(c3nccc(N4CCCC4=O)n3)CC2)cs1 [Example 92, 1-[2-[4-[(3S)-3-(2-methyl-1,3-thiazol-4-yl)-1,2-oxazolidine-2-carbonyl]piperidin-1-yl]pyrimidin-4-yl]pyrrolidin-2-one] | 7.74
Cc1cncc([C@@H]2CCON2C(=O)C2CCN(c3nccc(N4CCCC(F)(F)C4=O)n3)CC2)c1 [Example 76, 3,3-difluoro-1-[2-[4-[(3S)-3-(5-methylpyridin-3-yl)-1,2-oxazolidine-2-carbonyl]piperidin-1-yl]pyrimidin-4-yl]piperidin-2-one] | 6.31
O=C(C1CCN(c2cc(-c3cccnc3)ncn2)CC1)N1OCC[C@H]1c1cncc(F)c1 [Example 1, (S)-(3-(5-fluoropyridin-3-yl)isoxazolidin-2-yl)(1-(6-(pyridin-3-yl)pyrimidin-4-yl)piperidin-4-yl)methanone] | 7.43
Cc1ccc([C@@H]2CCON2C(=O)C2CCN(c3nccc(N4CCC(F)(F)C4=O)n3)CC2)cn1 [Example 73, 3,3-difluoro-1-[2-[4-[(3S)-3-(6-methylpyridin-3-yl)-1,2-oxazolidine-2-carbonyl]piperidin-1-yl]pyrimidin-4-yl]pyrrolidin-2-one] | 6.26
Cn1nccc1-c1cc(N2CC[C@@H](C(=O)N3OCC[C@H]3c3cnccn3)C3(CC3)C2)ncn1 [Example 39, [(8R)-5-[6-(2-methylpyrazol-3-yl)pyrimidin-4-yl]-5-azaspiro[2.5]octan-8-yl]-[(3S)-3-pyrazin-2-yl-1,2-oxazolidin-2-yl]methanone] | 7.70
Cc1ccc([C@@H]2CCON2C(=O)C2CCN(c3nccc(-c4ccnn4C)n3)CC2)cn1 [Example 15, [1-[4-(2-methylpyrazol-3-yl)pyrimidin-2-yl]-4-piperidyl]-[(3S)-3-(6-methyl-3-pyridyl)isoxazolidin-2-yl]methanone] | 9.00
Cc1nc([C@@H]2CCON2C(=O)C2CCN(c3cc(-n4ccnc4C)ncn3)CC2)cs1 [Example 7, [1-[6-(2-methylimidazol-1-yl)pyrimidin-4-yl]-4-piperidyl]-[(3S)-3-(2-methylthiazol-4-yl)isoxazolidin-2-yl]methanone] | 8.05
O=C1CCCN1c1cc(N2CCC(C(=O)N3OCC[C@H]3c3cncc(F)c3)CC2)ncn1 [Example 86, 1-[6-[4-[(3S)-3-(5-fluoropyridin-3-yl)-1,2-oxazolidine-2-carbonyl]piperidin-1-yl]pyrimidin-4-yl]pyrrolidin-2-one] | 6.11
Cc1ccc([C@@H]2CCON2C(=O)[C@@H]2CCN(c3ccnc(N4CCCC4=O)n3)CC23CC3)cn1 [Example 85, 1-[4-[(8R)-8-[(3S)-3-(6-methylpyridin-3-yl)-1,2-oxazolidine-2-carbonyl]-5-azaspiro[2.5]octan-5-yl]pyrimidin-2-yl]pyrrolidin-2-one] | 6.29
O=C(C1CCN(c2nccc(N3CCCC4(CC4)C3=O)n2)CC1)N1OCC[C@H]1c1cncc(F)c1 [Example 72, 5-[2-[4-[(3S)-3-(5-fluoropyridin-3-yl)-1,2-oxazolidine-2-carbonyl]piperidin-1-yl]pyrimidin-4-yl]-5-azaspiro[2.5]octan-4-one] | 7.24
Cc1ncc([C@@H]2CCON2C(=O)C2CCN(c3nccc(C4CCO4)n3)CC2)cc1F (single isomer, unassigned) [Example 98] | 6.57
Cc1cncc([C@@H]2CCON2C(=O)C2CCN(c3nccc(N4CCOC4=O)n3)CC2)c1 [Example 36, 3-[2-[4-[(3S)-3-(5-methyl-3-pyridyl)isoxazolidine-2-carbonyl]-1-piperidyl]pyrimidin-4-yl]oxazolidin-2-one] | 7.60
CN1CCN(c2ccnc(N3CCC(C(=O)N4OCC[C@H]4c4cncc(F)c4)CC3)n2)C1=O [Example 62, 1-[2-[4-[(3S)-3-(5-fluoropyridin-3-yl)-1,2-oxazolidine-2-carbonyl]piperidin-1-yl]pyrimidin-4-yl]-3-methylimidazolidin-2-one] | 7.39
Cc1ccc([C@@H]2CCON2C(=O)[C@@H]2CCN(c3nccc(N4CCOCC4=O)n3)CC23CC3)cn1 [Example 63, 4-[2-[(8R)-8-[(3S)-3-(6-methylpyridin-3-yl)-1,2-oxazolidine-2-carbonyl]-5-azaspiro[2.5]octan-5-yl]pyrimidin-4-yl]morpholin-3-one] | 7.36
O=C1OCCN1c1nc(N2CCC(C(=O)N3OCC[C@H]3c3cnccn3)CC2)ncc1F [Example 5, 3-[5-fluoro-2-[4-[(3S)-3-pyrazin-2-ylisoxazolidine-2-carbonyl]-1-piperidyl]pyrimidin-4-yl]oxazolidin-2-one] | 8.30
Cc1ccc([C@@H]2CCON2C(=O)C2CCN(c3nc(-c4ncco4)ncc3F)CC2)cn1 [Example 67, [1-[5-fluoro-2-(1,3-oxazol-2-yl)pyrimidin-4-yl]piperidin-4-yl]-[(3S)-3-(6-methylpyridin-3-yl)-1,2-oxazolidin-2-yl]methanone] | 6.87
